Where “and” joins values, the source holds several entries; their conditions need not be identical. Equal values may be shown once.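 In this assay, cells in 96-well plates receive the compound at five concentrations for 48 hours. Endpoints are linearly interpolated between the surrounding concentrations. The concentration for 50% growth inhibition is given as GI50. TGI: concentration producing complete growth inhibition.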
Columns and labels:
Experiment in all cases: NCI tumour cell line growth inhibition, 48 h
LXFL 529 NSCLC = system: LXFL 529 NSCLC
RXF-631 renal = system: RXF-631 renal
M19-MEL melanoma = system: M19-MEL melanoma
P388 leukemia = system: P388 leukemia
P388/ADR leukemia = system: P388/ADR leukemia

COC(=O)c1ccc(/C=C2\N=C(C)OC2=O)cc1
TGI (LXFL 529 NSCLC): > 100 µM | TGI (RXF-631 renal): > 100 µM | TGI (M19-MEL melanoma): > 100 µM

C=CCn1c(=O)n(CC=C)c(=O)n(CC=C)c1=O
TGI (LXFL 529 NSCLC): > 100 µM | TGI (M19-MEL melanoma): > 100 µM

O=C1NC(=O)C(CCO)(c2ccccc2)C(=O)N1
TGI (P388 leukemia): > 100 µM | TGI (M19-MEL melanoma): > 100 µM

CCCCCC(C[N+]1(C)CCOCC1)C(=O)/C=C/c1ccccc1 (configuration not stated)
TGI (LXFL 529 NSCLC): 11.5 µM | TGI (M19-MEL melanoma): 32 µM

CN(C)C(=O)OCOC(=O)N(C)C
TGI (P388/ADR leukemia): > 100 µM | TGI (P388 leukemia): > 100 µM | TGI (M19-MEL melanoma): > 100 µM

CCCCN1C=CN2c3nc4cc(C)c(C)cc4n3C(C(=O)OC)=C(C(=O)OC)C12 (configuration not stated)
TGI (LXFL 529 NSCLC): > 100 µM | TGI (M19-MEL melanoma): > 100 µM

COC(=O)C1OC(Oc2cc(O)c3c(=O)cc(-c4ccc(O)cc4)oc3c2)C(O)C(O)C1O (configuration not stated)
TGI (P388/ADR leukemia): > 100 µM | TGI (P388 leukemia): > 100 µM | TGI (M19-MEL melanoma): > 100 µM

OCC1OC(n2cnc3c2NC=NC[C@H]3O)C(O)C1O (some centres not stated)
TGI (P388/ADR leukemia): > 450 µM | TGI (P388 leukemia): > 450 µM | TGI (M19-MEL melanoma): > 450 µM

CCOC(=O)C(N)CSC(=O)NC (configuration not stated)
TGI (P388/ADR leukemia): 104 µM | TGI (P388 leukemia): 102 µM | TGI (M19-MEL melanoma): 157 µM

C=C1C(=O)O[C@H]2[C@H]1[C@@H](OC(=O)C=C(C)C)CC1=C[C@@H](C[C@@]3(C)O[C@@H]23)OC1=O
TGI (P388/ADR leukemia): 1120 µM and 1250 µM | TGI (P388 leukemia): 0.914 µM | GI50 (M19-MEL melanoma): 4.37 µM | TGI (M19-MEL melanoma): 8.29 µM and 16.7 µM
